Source: patent US8658604B2, “Template-fixed beta-hairpin peptidomimetics with protease inhibitory activity” (Polyphor Ltd, priority 2005, dated 2014)
Where a SMILES comes first, the peptide text is derived from it.

Tests used:
[1] = test system: human red blood cells (hRBC); test: Hemolysis
[2] = molecular target: Urokinase from human urine (Homo sapiens, UniProt P00749); test: Enzymatic assay, urokinase
[3] = molecular target: Trypsin, from human pancreas (Homo sapiens, UniProt P07477); test: Enzymatic assay, trypsin; details: at 100 μM
[4] = molecular target: Thrombin, from Human Plasma (Homo sapiens, UniProt P00734); test: Enzymatic assay, thrombin
HELA cells (Acc57) = test: Cytotoxicity assay (MTT reduction), HELA cells; assay type: cell-based; details: Hela cells
How it was run: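 HeLa cells were grown for 24 h, then exposed to peptides at 12.5, 25 and 50 μM in triplicate for 48 h at 37 °C. MTT reduction was read at 595 nm and growth % calculated relative to time-zero wells. LC50 interpolated by linear trend at −50% growth, GI50 at 50%.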

[5] = molecular target: Coagulation Factor Xa, from uman plasma (Homo sapiens, UniProt P00742); test: Enzymatic assay, coagulation factor Xa
Sequence of Coagulation Factor Xa, from uman plasma (P00742 235-488 limits assumed): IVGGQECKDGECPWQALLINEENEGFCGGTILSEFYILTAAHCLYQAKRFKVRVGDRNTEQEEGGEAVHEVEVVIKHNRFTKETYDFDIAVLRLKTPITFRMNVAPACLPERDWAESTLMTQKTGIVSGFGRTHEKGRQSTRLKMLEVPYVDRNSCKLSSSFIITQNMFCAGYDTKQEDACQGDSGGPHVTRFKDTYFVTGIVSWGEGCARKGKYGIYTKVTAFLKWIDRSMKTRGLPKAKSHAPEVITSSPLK
Sequence of Coagulation Factor Xa, from uman plasma (P00742 41-179 limits assumed): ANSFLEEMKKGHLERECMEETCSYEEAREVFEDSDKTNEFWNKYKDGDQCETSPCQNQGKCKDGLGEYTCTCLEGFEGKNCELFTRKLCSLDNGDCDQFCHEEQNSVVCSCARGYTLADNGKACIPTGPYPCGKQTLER

[6] = molecular target: T1, CathepsinG, from human neutrophils (Homo sapiens, UniProt P08311); test: Enzymatic assay, cathepsin G; details: for IC50: Cathepsin G IC50
T1 sequence (P08311 21-244): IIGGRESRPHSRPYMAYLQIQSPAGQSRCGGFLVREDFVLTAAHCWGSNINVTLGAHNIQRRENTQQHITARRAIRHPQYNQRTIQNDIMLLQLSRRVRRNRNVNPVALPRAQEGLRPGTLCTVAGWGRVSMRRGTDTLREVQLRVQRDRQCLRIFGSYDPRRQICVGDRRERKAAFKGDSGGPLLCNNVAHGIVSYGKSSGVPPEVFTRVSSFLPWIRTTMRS

[7] = assay type: in vitro ADME; details: 10 µM
Method: 405 μl of plasma/albumin solution were placed in a polypropylene (PP) tube and spiked with 45 μl of compound from a […] solution B, derived from 135 μl of PBS and 15 μl of 1 mM peptide in PBS, pH 7.4. 150 μl aliquots were transferred into individual wells of the 10 kDa filter plate (Millipore MAPPB 1010 Biomax membrane). For “0 minutes controls”: 270 μl of PBS were placed in a PP tube and 30 μl of stock solution B was added and vortexed. 150 μl of control solution were placed into one well of the filter plate and served as “filtered control”.
Further 150 μl of control solution were placed directly into a receiver well (reserved for filtrate) and served as “not-filtered control”. The entire plate including evaporation lid was incubated for 60 min at 37° C. Plasma samples (rat plasma: Harlan Sera lab UK, human plasma: Blutspendezentrum Zürich) were centrifuged at least for 2 h at 4300 rpm (3500 g) and 15° C. in order to yield 100 filtrate. For “serum albumin”-samples (freshly prepared human albumin: Sigma A-4327, rat albumin: Sigma A-6272, all at 40 mg/ml concentration in PBS) approximately 1 hour of centrifugation was sufficient. The filtrates in the receiver PP plate were analysed by LC/MS as follower follows: Column: Jupiter C18 (Phenomenex), mobile phases: (A) 0.1% formic acid in water and (B) acetonitrile, gradient: 5%-100% (B) in 2 minutes, electrospray ionization, MRM detection (triple quadrupole). The peak areas were determined and triplicate values were averaged. The binding was expressed in percent of the (filtered and not-filtered time point 0 min) control 1 and 2 by: 100−(100×T60/T0). The average from these values was then calculated.

[8] = test system: Tryptase, from human lung; test: Enzymatic assay, tryptase; details: at 100 μM
[9] = molecular target: Chymotrypsin, from human pancreas (Homo sapiens, UniProt P17538); test: Enzymatic assay, chymotrypsin
Sequence of Chymotrypsin, from human pancreas (P17538 19-263): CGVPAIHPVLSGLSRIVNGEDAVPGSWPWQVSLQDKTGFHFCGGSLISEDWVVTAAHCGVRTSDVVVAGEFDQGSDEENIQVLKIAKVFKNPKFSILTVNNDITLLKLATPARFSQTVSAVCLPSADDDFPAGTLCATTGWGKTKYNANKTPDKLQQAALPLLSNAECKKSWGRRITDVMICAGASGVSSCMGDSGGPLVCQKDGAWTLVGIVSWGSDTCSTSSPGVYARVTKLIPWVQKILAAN

Chymase, from human skin = molecular target: T2, Chymase, from human skin (Homo sapiens, UniProt P23946); test: Enzymatic assay, chymase
T2 sequence (P23946 22-247): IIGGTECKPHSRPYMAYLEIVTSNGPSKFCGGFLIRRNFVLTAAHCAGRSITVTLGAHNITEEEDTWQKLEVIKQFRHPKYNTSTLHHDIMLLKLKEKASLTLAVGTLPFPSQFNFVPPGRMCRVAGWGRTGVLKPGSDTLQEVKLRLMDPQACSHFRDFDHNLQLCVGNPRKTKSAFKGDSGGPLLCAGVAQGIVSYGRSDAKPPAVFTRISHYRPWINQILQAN

[10] = molecular target: T3, Elastase from human neutrophils (Homo sapiens, UniProt P08246); test: Enzymatic assay, elastase; details: Elastase IC50
T3 sequence (P08246 30-267): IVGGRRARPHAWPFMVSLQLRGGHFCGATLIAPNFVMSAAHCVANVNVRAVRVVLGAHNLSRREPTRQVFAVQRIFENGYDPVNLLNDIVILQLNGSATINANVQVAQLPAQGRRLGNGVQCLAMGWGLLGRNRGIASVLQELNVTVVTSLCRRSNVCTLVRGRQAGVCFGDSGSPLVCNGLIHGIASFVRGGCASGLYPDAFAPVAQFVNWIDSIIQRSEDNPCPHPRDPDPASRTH

SMILES	Hemolysis at 100 μM % [1] [%]	Urokinase at 100 μM % [2] [%]	Trypsin at 100 μM % [3] [%]	Thrombin at 100 μM % [4] [%]	Cytotoxicity LC50/GI50 Hela cells (HELA cells (Acc57)) [µM]	FXa at 100 μM % [5] [%]	IC50 [6] [µM]	Stability human Plasma t1/2 [7] [h]	Stability rat Plasma t1/2 [7] [h]	Tryptase at 100 μM % [8] [%]	Chymotrypsin at 100 μM % [9] [%]	Chymase at 100 μM % (Chymase, from human skin) [%]	IC50 [10] [µM]	IC50 [9] [µM]	Cathepsin G at 100 μM % ([6]; at 100 μM) [at 100%]	Tryptase At 100 μM % [8] [%]
CCCC[C@@H]1NC(=O)[C@H]([C@@H](C)O)NC(=O)[C@@H]2CSSC[C@H](NC(=O)[C@H]([C@@H](C)CC)NC(=O)[C@@H]3CCCN3C(=O)[C@@H]3CCCN3C(=O)[C@H](CC(=O)O)NC(=O)[C@H](CO)NC1=O)C(=O)N[C@@H](Cc1ccc(O)cc1)C(=O)N1CCC[C@@H]1C(=O)N1CCC[C@H]1C(=O)N[C@@H](Cc1ccccc1)C(=O)N2 [Ex. 23] (HELM PEPTIDE1{F.C.T.[Nle].S.D.P.P.I.C.Y.[dP].P}$PEPTIDE1,PEPTIDE1,2:R3-10:R3|PEPTIDE1,PEPTIDE1,1:R1-13:R2$$$V2.0)	0	9	90	0	51	11	0.038	5	5	29	4	60	> 100			
CCCC[C@@H]1NC(=O)[C@H](CC(=O)O)NC(=O)[C@H]2CCCN2C(=O)[C@H](Cc2ccc(O)cc2)NC(=O)[C@@H]2CSSC[C@H](NC1=O)C(=O)N[C@@H]([C@@H](C)O)C(=O)N[C@@H](C)C(=O)N[C@@H](CO)C(=O)N[C@@H]([C@@H](C)CC)C(=O)N1CCC[C@H]1C(=O)N1CCC[C@H]1C(=O)N[C@@H](CCC(N)=O)C(=O)N2 [Ex. 121] (HELM PEPTIDE1{[Nle].C.T.A.S.I.P.P.Q.C.Y.[dP].D}$PEPTIDE1,PEPTIDE1,2:R3-10:R3|PEPTIDE1,PEPTIDE1,1:R1-13:R2$$$V2.0)		5.7	12.8	0	49	5.6	11.2	5	5	4.6		1.2	0.018	27.5		
C[C@@H]1NC(=O)[C@H]([C@@H](C)O)NC(=O)[C@@H]2CSSC[C@H](NC(=O)[C@H](CCC(N)=O)NC(=O)[C@@H]3CCCN3C(=O)[C@@H]3CCCN3C(=O)[C@H](CC3CCCCC3)NC(=O)[C@H](CO)NC1=O)C(=O)N[C@@H](CCC(N)=O)C(=O)N1CCC[C@@H]1C(=O)N1CCC[C@H]1C(=O)N[C@@H](CCc1ccccc1)C(=O)N2 [Ex. 158] (HELM PEPTIDE1{[O=C([C@H](CCc1ccccc1)N[*:1])[*:2]].C.T.A.S.[Cha].P.P.Q.C.Q.[dP].P}$PEPTIDE1,PEPTIDE1,2:R3-10:R3|PEPTIDE1,PEPTIDE1,1:R1-13:R2$$$V2.0)		10	8	2		1		5	5		93	0	0.0071		55	13
